The source made the active and inactive calls.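 How the source made its calls: active means fitted dose curve reaches 40% lysis signal rise at or below the highest valid concentration tested for that sample; inconclusive means flat fit between 30% and 70%, or poor curve fit; inactive means signal falls, stays flat within 30%, or no crossing.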
Test system: C. neoformans lysis, adenylate kinase release luminescence, 4 h
Assay: C. neoformans lysis by adenylate kinase leakage – AK release luminescence, cherry-picks, dose response (AID 687000)

Cc1ccc(OCCn2c(=S)[nH]c3ccccc32)c(C(C)C)c1
AC40: 0.883 µM

COc1ccc(NC(=S)NCc2ccc(Cl)cc2)c(OC)c1
AC40: 4.16 µM

C[C@@H]1CN([C@@H](C)CO)C(=O)c2cc(NS(=O)(=O)c3cn(C)cn3)ccc2O[C@@H](C)CCCCO[C@@H]1CN(C)Cc1ccc(C(F)(F)F)cc1
AC40: > 15 µM (inactive)

C[C@@H]1CCCCO[C@@H](CN(C)C(=O)CCCN(C)C)[C@@H](C)CN([C@H](C)CO)C(=O)c2cc(NC(=O)Cc3ccccc3)ccc2O1
AC40: 14.8 µM

COCC(=O)Nc1ccc2c(c1)C(=O)N(C)C[C@H](OC)[C@@H](C)CN(C(=O)c1ccccc1)[C@@H](C)CO2
AC40: > 15 µM (inactive)

C[C@H](CO)N1C[C@H](C)[C@H](CN(C)Cc2ccccc2)OCCCC[C@H](C)Oc2ccc(NS(=O)(=O)c3cccs3)cc2C1=O
AC40: > 15 µM (inactive)

CC[C@H](C)[C@@H]1NC(=O)CNC(=O)c2csc(n2)[C@H](C(C)(C)O)OC(=O)C(C)(C)[C@H](CCCC(C)(Cl)Cl)OC(=O)c2csc1n2
AC40: 2.66 µM

COc1ccccc1CNC(=S)NCc1ccc(Cl)cc1
AC40: 2.03 µM

O=C(Cc1ccccc1)N[C@H]1C=C[C@@H](CC(=O)N2CCOCC2)O[C@@H]1CO
AC40: 4.91 µM

COC(=O)C1=C(C)N(Cc2ccc(Cl)cc2)C(=S)NC1c1ccc(Br)cc1 (centres undefined)
AC40: 0.781 µM

S=C(Nc1ccccc1Oc1ccccc1)Nc1cccc(Cl)c1Cl
AC40: > 15 µM (inactive)

O=C(NC(=S)Nc1ccccc1N1CCCC1)c1ccccc1[N+](=O)[O-]
AC40: > 15 µM (inactive)

S=C(NCCCc1ccccc1)Nc1ccccc1
AC40: 2.56 µM

COC(=O)C1=C(C)N(Cc2ccccc2)C(=S)NC1c1ccc(Br)cc1 (centres undefined)
AC40: 2.58 µM

CCCOc1ccc(CNC(=S)NCc2ccc(OC(C)C)cc2)cc1
AC40: 14.3 µM

COc1cccc(C(=O)NC(=S)Nc2ccccc2N2CCOCC2)c1
AC40: > 15 µM (inactive)

COC(=O)C1=C(C)N(Cc2ccccc2)C(=S)NC1c1ccc(Cl)cc1 (centres undefined)
AC40: 2.45 µM

COCCN1C(=S)N[C@@H](c2ccccc2)C(C(=O)OC)=C1C
AC40: 13.5 µM

CC(C)CC#Cc1cnc2c(c1)C(=O)N([C@H](C)CO)C[C@H](C)[C@@H](CN(C)Cc1cccc(F)c1)O2
AC40: > 15 µM (inactive)

CCCC(=O)Nc1ccc2c(c1)C(=O)N(C)C[C@H](OC)[C@@H](C)CN(C(=O)c1cccnc1)[C@H](C)CO2
AC40: 13.7 µM

CO[C@@H]1CN(C)C(=O)c2cc(NS(=O)(=O)c3cccc(C)c3)ccc2OC[C@@H](C)NC[C@H]1C
AC40: > 15 µM (inactive)

Cc1ccc(C)c(NC(=O)C2(C)CCCN2C(=O)C(C)C)c1 (centres undefined)
AC40: 7.4 µM

COCCNC(=O)C[C@H]1C[C@@H]2c3cc(NC(=O)C4CCC4)ccc3O[C@@H]2[C@H](CO)O1
AC40: > 15 µM (inactive)

CCCC(=O)Nc1ccc2c(c1)C(=O)N(C)C[C@H](OC)[C@@H](C)CN(C(=O)c1cccnc1)[C@@H](C)CO2
AC40: > 15 µM (inactive)

COC(=O)C1=C(C)N(Cc2ccc(Cl)cc2)C(=S)NC1c1cccc(F)c1 (centres undefined)
AC40: 13.1 µM

Cc1ccc(C(=O)NC(=S)Nc2ccccc2N2CCCC2)cc1[N+](=O)[O-]
AC40: > 15 µM (inactive)

C[C@H](CO)N1C[C@H](C)[C@@H](CN(C)Cc2ccc(-c3ccccc3)cc2)Oc2ccc(NC(=O)Nc3ccc(C(F)(F)F)cc3)cc2C1=O
AC40: > 15 µM (inactive)

CCCC(=O)N1CCC1(C)C(=O)Nc1ccc(C)cc1 (centres undefined)
AC40: > 28.5 µM (inactive)

COc1ccc(CN(C)C[C@H]2Oc3ccc(NC(=O)Nc4ccc(F)cc4)cc3CC(=O)N([C@@H](C)CO)C[C@@H]2C)cc1
AC40: > 16 µM (inactive)

Cc1cc(Cl)ccc1NC(=S)NCc1ccc(F)cc1
AC40: 2.25 µM

O=C(NC(=S)Nc1ccccc1N1CCOCC1)c1ccc(Br)cc1
AC40: > 15 µM (inactive)

CC(C)NC(=O)N[C@H]1CC[C@@H](CCNC(=O)C2CC2)O[C@H]1CO
AC40: > 15 µM (inactive)

COC(=O)C1=C(C)N(Cc2ccc(F)cc2)C(=S)NC1c1ccc(Cl)cc1 (centres undefined)
AC40: > 15 µM (inactive)

C[C@@H]1CCCCO[C@@H](CN(C)C(=O)Nc2ccc3c(c2)OCO3)[C@@H](C)CN([C@H](C)CO)C(=O)c2cc(NC(=O)Nc3cccc4ccccc34)ccc2O1
AC40: > 15 µM (inactive)
